One data set concerns the target Histone deacetylase 4 (Homo sapiens, UniProt P56524). The experiment in a line: Inhibition of His-tagged HDAC4 catalytic domain expressed in Escherichia coli.
Another data set has as its target Histone deacetylase 1 (Homo sapiens, UniProt Q13547). Put plainly: Inhibition of HDAC1.
A further data set has as its target Histone deacetylase 3 (Homo sapiens, UniProt O15379). Put plainly: Inhibition of HDAC3.
The target of data set [1] is T1, Protein deacetylase HDAC6 (Homo sapiens, UniProt Q9UBN7).
T1 sequence (Q9UBN7 whole entry): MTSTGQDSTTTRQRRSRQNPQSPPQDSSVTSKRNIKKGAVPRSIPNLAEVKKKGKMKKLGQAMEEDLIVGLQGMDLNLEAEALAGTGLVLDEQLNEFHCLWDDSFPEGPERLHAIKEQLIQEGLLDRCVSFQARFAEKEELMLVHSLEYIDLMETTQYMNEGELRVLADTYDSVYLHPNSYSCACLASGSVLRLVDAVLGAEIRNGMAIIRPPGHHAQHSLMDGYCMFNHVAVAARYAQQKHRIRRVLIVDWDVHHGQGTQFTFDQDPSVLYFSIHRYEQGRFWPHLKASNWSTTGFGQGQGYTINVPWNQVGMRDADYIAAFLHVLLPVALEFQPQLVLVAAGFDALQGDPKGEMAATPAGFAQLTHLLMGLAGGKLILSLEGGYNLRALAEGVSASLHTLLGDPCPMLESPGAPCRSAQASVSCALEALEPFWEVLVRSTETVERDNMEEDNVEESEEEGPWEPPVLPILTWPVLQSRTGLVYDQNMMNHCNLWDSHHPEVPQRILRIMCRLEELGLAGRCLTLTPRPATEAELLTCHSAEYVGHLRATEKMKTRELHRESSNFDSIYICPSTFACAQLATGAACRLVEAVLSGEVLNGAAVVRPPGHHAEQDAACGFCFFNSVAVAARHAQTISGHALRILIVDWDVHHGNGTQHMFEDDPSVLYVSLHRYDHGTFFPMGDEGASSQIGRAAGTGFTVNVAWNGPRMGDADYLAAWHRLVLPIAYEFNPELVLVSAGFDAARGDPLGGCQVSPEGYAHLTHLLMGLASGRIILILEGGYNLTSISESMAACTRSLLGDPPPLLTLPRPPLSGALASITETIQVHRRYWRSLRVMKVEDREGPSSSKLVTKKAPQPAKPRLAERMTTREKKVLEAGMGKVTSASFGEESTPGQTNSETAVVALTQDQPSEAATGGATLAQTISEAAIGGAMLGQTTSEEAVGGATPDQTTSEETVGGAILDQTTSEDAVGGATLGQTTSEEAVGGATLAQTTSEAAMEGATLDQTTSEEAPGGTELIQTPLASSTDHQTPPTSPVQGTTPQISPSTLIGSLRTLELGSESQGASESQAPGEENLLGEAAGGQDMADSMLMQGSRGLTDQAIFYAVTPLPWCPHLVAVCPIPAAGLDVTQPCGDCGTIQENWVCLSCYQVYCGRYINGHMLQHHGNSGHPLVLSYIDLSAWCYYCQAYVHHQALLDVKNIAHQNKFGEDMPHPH
The experiment in a line: Inhibition of HDAC6.

Data set [2] in a line: Selectivity for His-tagged HDAC4 catalytic domain over HDAC1.
A short description of data set [3]: Metabolic stability in S9 fraction of human HCT116 cells assessed as half life in presence of NADPH and regenerating system. The class given is ADME, cell-based, HCT-116.
Data set [4] can be described thus: Metabolic stability in human HCT116 cells assessed as half life at 5 uM in presence of 10% FBS. Format: ADME, cell-based, HCT-116.
In data set [5] the target is T1, Protein deacetylase HDAC6. The experiment in a line: Inhibition of HDAC6 in human HCT116 cells assessed as inhibition of alpha-tubulin deacetylation. Format: cell-based, HCT-116.

Where only a bound is given, the exact number is not on record here.

Sequence of Histone deacetylase 4 (P56524 whole entry, the tested form may be a part): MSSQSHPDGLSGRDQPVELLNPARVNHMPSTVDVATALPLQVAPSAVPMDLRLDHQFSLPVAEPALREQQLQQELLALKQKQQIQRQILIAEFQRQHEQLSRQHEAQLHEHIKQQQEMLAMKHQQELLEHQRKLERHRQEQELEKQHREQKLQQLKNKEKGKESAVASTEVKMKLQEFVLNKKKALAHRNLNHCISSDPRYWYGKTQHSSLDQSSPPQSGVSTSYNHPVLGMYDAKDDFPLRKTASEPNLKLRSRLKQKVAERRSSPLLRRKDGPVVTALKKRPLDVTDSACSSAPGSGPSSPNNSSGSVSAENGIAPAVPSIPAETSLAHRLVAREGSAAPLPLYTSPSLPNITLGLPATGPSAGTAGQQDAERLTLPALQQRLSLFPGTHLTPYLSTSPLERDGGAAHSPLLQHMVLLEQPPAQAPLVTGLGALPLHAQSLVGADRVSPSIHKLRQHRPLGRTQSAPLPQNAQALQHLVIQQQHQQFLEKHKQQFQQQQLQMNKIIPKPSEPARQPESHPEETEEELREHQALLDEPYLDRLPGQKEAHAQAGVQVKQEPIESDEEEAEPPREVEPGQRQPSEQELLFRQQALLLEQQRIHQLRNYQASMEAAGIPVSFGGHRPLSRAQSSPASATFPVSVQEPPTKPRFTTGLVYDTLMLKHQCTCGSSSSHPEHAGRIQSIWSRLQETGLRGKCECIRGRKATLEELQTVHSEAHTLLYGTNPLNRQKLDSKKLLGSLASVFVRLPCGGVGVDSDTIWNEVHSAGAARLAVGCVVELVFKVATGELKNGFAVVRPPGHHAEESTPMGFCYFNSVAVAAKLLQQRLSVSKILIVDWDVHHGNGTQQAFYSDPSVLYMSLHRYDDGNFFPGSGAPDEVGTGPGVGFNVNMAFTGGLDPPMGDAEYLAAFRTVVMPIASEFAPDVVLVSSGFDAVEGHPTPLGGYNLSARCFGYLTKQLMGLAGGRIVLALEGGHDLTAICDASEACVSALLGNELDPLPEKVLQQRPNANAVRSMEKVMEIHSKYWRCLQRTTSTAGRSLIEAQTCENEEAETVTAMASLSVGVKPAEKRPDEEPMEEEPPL
Sequence of Histone deacetylase 1 (Q13547 whole entry): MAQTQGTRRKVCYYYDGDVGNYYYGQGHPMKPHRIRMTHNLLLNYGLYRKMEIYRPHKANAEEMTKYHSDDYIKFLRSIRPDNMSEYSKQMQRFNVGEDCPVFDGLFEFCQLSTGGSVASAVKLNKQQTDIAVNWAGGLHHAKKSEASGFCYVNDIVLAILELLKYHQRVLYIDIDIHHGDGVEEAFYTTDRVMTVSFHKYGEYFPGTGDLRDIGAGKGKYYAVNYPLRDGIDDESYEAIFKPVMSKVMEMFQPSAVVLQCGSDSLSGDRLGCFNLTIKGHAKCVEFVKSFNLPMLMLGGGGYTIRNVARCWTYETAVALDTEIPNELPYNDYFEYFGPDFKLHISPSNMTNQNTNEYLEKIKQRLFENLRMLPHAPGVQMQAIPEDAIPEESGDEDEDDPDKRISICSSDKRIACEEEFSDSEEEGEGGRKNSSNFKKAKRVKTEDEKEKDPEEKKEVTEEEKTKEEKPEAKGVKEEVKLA
Sequence of Histone deacetylase 3 (O15379 whole entry): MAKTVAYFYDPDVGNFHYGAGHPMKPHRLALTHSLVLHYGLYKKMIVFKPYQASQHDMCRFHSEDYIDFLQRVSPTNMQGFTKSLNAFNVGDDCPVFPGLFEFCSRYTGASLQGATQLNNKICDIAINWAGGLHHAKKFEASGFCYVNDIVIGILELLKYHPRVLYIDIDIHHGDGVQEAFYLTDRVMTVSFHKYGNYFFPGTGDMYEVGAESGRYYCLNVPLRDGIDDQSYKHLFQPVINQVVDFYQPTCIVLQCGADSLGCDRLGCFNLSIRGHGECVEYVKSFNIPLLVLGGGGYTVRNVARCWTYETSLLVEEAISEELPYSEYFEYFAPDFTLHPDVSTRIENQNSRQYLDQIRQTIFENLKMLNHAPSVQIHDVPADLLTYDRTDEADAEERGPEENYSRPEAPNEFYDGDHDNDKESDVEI

Regarding `O=C(c1ccc(-c2nnc(-c3ccccc3)o2)s1)C(F)(F)F`, the IC50 against Histone deacetylase 4 stood at 420 nM; against Histone deacetylase 1, 2970 nM; against Histone deacetylase 3, 500 nM; in data set [1] it was 330 nM.
As to `O=C1COc2ccccc2N1Cc1noc(-c2ccc(C(=O)C(F)(F)F)s2)n1`, the IC50 is 15 nM on Histone deacetylase 4, 1170 nM on Histone deacetylase 1, > 1000 nM against Histone deacetylase 3 and 410 nM in data set [1]. For the same molecule, in data set [2], the Ratio IC50 was > 75. For the same molecule, in data set [3], the half-life was 25 min.
Turning to `Cc1ccc(-c2nnc(-c3ccc(C(=O)C(F)(F)F)s3)o2)cc1`, the IC50 against Histone deacetylase 4 was 270 nM; against Histone deacetylase 1, 1800 nM; against Histone deacetylase 3, > 1000 nM; in data set [1] it was 600 nM.
As for `O=C(c1ccc(-c2nc(Cc3cccs3)no2)s1)C(F)(F)F`, the IC50 against Histone deacetylase 4 amounted to 15 nM; on Histone deacetylase 1, 990 nM; on Histone deacetylase 3, 630 nM; in data set [1] it was 170 nM. Moreover, in data set [2], the Ratio IC50 was 70. The half-life in data set [3] is 35 min.
For the molecule `O=C(c1ccc(-c2nc(-c3ccc(Cl)cc3Cl)no2)s1)C(F)(F)F`, the IC50 against Histone deacetylase 4 is 240 nM; against Histone deacetylase 1, > 5000 nM; in data set [1], 3000 nM.
For `O=C(c1ccc(-c2nc(-c3cccnc3)no2)s1)C(F)(F)F`, the IC50 on Histone deacetylase 4 is 70 nM; on Histone deacetylase 1, 2200 nM; in data set [1], 840 nM.
With `CN(Cc1ccccc1)C(=O)c1ccc(C(=O)C(F)(F)F)s1`, the half-life in data set [3] worked out at 15 min.
In the case of `O=C(c1ccc(-c2nc(-c3ccc(C(F)(F)F)cc3)no2)s1)C(F)(F)F`, the IC50 is 200 nM against Histone deacetylase 4, > 10000 nM at Histone deacetylase 1 and 11000 nM in data set [1].
In the case of `CS(=O)(=O)Cc1noc(-c2ccc(C(=O)C(F)(F)F)s2)n1`, the IC50 at Histone deacetylase 4 is 30 nM; at Histone deacetylase 1 it was 2470 nM; against Histone deacetylase 3, > 1000 nM; in data set [1], 320 nM; in data set [5] it was 640 nM. For the same molecule, in data set [2], the Ratio IC50 is > 70. In addition, in data set [3], the half-life was > 120 min. Further, the half-life at 5 µM in data set [4] was 780 min.
`O=C(c1ccc(-c2nc(CS(=O)(=O)c3cccs3)no2)s1)C(F)(F)F`: the IC50 against Histone deacetylase 4 was 35 nM; against Histone deacetylase 1 it was 3890 nM; at Histone deacetylase 3 it was > 1000 nM; in data set [1] it was 520 nM. In data set [2], the Ratio IC50 was > 100. Also, the half-life in data set [3] came out at 44 min. Further, in data set [4], the half-life at 5 µM was 360 min.
Regarding `O=C(Cc1noc(-c2ccc(C(=O)C(F)(F)F)s2)n1)N1CCCC1`, the IC50 was found to be 60 nM on Histone deacetylase 4, 5900 nM against Histone deacetylase 1 and 710 nM in data set [1]. Moreover, in data set [2], the Ratio IC50 is > 75.
As to `Cc1cccc(-c2noc(-c3ccc(C(=O)C(F)(F)F)s3)n2)c1`, the IC50 against Histone deacetylase 4 is 280 nM; at Histone deacetylase 1, 6540 nM; against Histone deacetylase 3 it was > 1000 nM; in data set [1], 680 nM.
Taken in the same sequence, the figures for `O=C(c1ccc(-c2nc(-c3ccc(F)cc3)no2)s1)C(F)(F)F` were 220 nM, 5900 nM, > 1000 nM and 270 nM.
Regarding `O=C(c1ccc(-c2nc(-c3ccc(F)cc3F)no2)s1)C(F)(F)F`, the IC50 against Histone deacetylase 4 is 120 nM; against Histone deacetylase 1 it was 4200 nM; on Histone deacetylase 3, > 1000 nM; in data set [1] it was 580 nM. For the same molecule, the half-life in data set [3] was > 120 min.
Turning to `O=C(c1ccc(-c2nc(-c3ccccc3)no2)s1)C(F)(F)F`, the IC50 is 110 nM at Histone deacetylase 4, 7400 nM on Histone deacetylase 1, > 1000 nM at Histone deacetylase 3 and 580 nM in data set [1].
With `O=C(c1ccc(-c2nc(-c3ccccn3)no2)s1)C(F)(F)F`, the IC50 was determined as 90 nM on Histone deacetylase 4, 2800 nM at Histone deacetylase 1 and 500 nM in data set [1].
On to `CC(C)(C)c1ccc(-c2noc(-c3ccc(C(=O)C(F)(F)F)s3)n2)cc1`, for which the IC50 against Histone deacetylase 4 was > 2000 nM; on Histone deacetylase 1, 16600 nM; on Histone deacetylase 3, > 1000 nM; in data set [1], 3540 nM.
`O=C(c1ccc(-c2nc(COc3ccc(-c4nnco4)cc3)no2)s1)C(F)(F)F` showed an IC50 against Histone deacetylase 1 of 4800 nM. Moreover, the half-life in data set [3] is 18 min.
On to `O=C(c1ccc(-c2nc(-c3cccs3)no2)s1)C(F)(F)F`, for which the IC50 at Histone deacetylase 4 came to 95 nM; against Histone deacetylase 1, 2900 nM; in data set [1], 670 nM.
On to `CCNC(=O)c1ccc(C(=O)C(F)(F)F)s1`, for which, on Histone deacetylase 3, the IC50 is > 10000 nM.
On to `Cc1ccc(-c2noc(-c3ccc(C(=O)C(F)(F)F)s3)n2)cc1`, for which the half-maximal inhibitory concentration (IC50) is 110 nM on Histone deacetylase 4, 6800 nM on Histone deacetylase 1 and 860 nM in data set [1].
On to `O=C(c1ccc(-c2nnc(-c3cccs3)o2)s1)C(F)(F)F`, for which the IC50 amounted to 450 nM against Histone deacetylase 4, 2600 nM on Histone deacetylase 1, 500 nM against Histone deacetylase 3 and 160 nM in data set [1].
Take `Cc1noc(-c2ccc(C(=O)C(F)(F)F)s2)n1`: the IC50 at Histone deacetylase 4 stood at 75 nM; against Histone deacetylase 1 it was 7600 nM; at Histone deacetylase 3, 7100 nM; in data set [1], 650 nM. Further, the half-life in data set [3] is > 120 min.
For `CCCS(=O)(=O)Cc1noc(-c2ccc(C(=O)C(F)(F)F)s2)n1`, the IC50 against Histone deacetylase 4 was 30 nM; against Histone deacetylase 1, 2220 nM; on Histone deacetylase 3, > 1000 nM; in data set [1] it was 240 nM; in data set [5], 500 nM. Also, the Ratio IC50 in data set [2] is > 70. Besides, the half-life in data set [3] is 45 min. In data set [4], the half-life at 5 µM was 720 min.
As to `O=C(c1ccc(-c2nc(CS(=O)(=O)Cc3ccc(F)cc3)no2)s1)C(F)(F)F`, the IC50 was 60 nM against Histone deacetylase 4, 6550 nM against Histone deacetylase 1, > 1000 nM at Histone deacetylase 3 and 700 nM in data set [1]. Also, in data set [3], the half-life turned out to be 35 min. In addition, the half-life at 5 µM in data set [4] is 330 min.
Regarding `O=C(c1ccc(-c2nc(-c3ccncc3)no2)s1)C(F)(F)F`, the IC50 against Histone deacetylase 4 was 590 nM; at Histone deacetylase 1 it was > 10000 nM; in data set [1], 570 nM.
For `O=C(c1ccc(-c2ncc(-c3ccccc3)s2)s1)C(F)(F)F`, the IC50 was 1500 nM against Histone deacetylase 4, > 10000 nM on Histone deacetylase 1 and 1350 nM in data set [1].
`O=C(NCc1ccccc1)c1ccc(C(=O)C(F)(F)F)s1`: the IC50 turned out to be 243 nM on Histone deacetylase 4, 467 nM against Histone deacetylase 1, 520 nM at Histone deacetylase 3 and 370 nM in data set [1].
Consider `O=C(c1ccc(-c2nc(-c3cccc(C(F)(F)F)c3)no2)s1)C(F)(F)F`, for which the IC50 was 320 nM against Histone deacetylase 4, 17500 nM on Histone deacetylase 1, > 1000 nM at Histone deacetylase 3 and 2450 nM in data set [1].

Broadly, the IC50 is the concentration that gives 50% inhibition. As usually defined, the half-life is the time needed for the level to fall by half in the phase considered.

The values above are taken from ChEMBL document CHEMBL1152136, “2-Trifluoroacetylthiophene oxadiazoles as potent and selective class II human histone deacetylase inhibitors” (Bioorg Med Chem Lett, 2008).
